Measured values published in ChEMBL document CHEMBL4325859, “Research advances on anticancer activities of matrine and its derivatives: An updated overview” (Eur J Med Chem, 2019).
≈ marks a conversion by molar mass, not a printed value.

Columns and labels:
A549 [1] = assay: Antiproliferative activity against human A549 cells at 2 g/L after 48 hrs by MTT assay relative to control; type: functional
A549 [2] = assay: Antiproliferative activity against human A549 cells at 1.5 g/L after 12 to 48 hrs by MTT assay relative to control; type: functional
HT-29 [3] = assay: Growth inhibition of human HT-29 cells at 1 mg/ml by MTT assay relative to control; type: functional; details: read-out: GI
[4] = Growth inhibition of human GRC1 cells at 1.5 g/L after 72 hrs by MTT assay relative to control; type: functional; details: read-out: GI
[5] = Antiproliferative activity against human 95-D cells at 2 g/L after 48 hrs by MTT assay relative to control; type: functional
HOS [6] = assay: Growth inhibition of human HOS cells at 0.8 mg/ml after 48 hrs by MTT assay relative to control; type: functional; details: read-out: GI
K562 = assay: Antiproliferative activity against human K562 cells after 72 hrs by MTT assay; type: functional, cell-based; details: K562, 72 h
HL-60 = assay: Antiproliferative activity against human HL60 cells after 24 hrs by MTT assay; type: functional, cell-based; details: HL-60, 24 h
KYSE-150 cell line [7] = assay: Antiproliferative activity against human KYSE-150 cells after 24 hrs by MTT assay; type: functional, cell-based; details: KYSE-150, 24 h
HeLa = assay: Induction of apoptosis in human HeLa cells at 25 ug/ml after 48 hrs by Annexin V-FITC/propidium iodide staining based flow cytometry relative to control; type: functional
UMR108 [8] = assay: Growth inhibition of rat UMR108 cells assessed as cell proliferation at 1.5 mg/ml after 24 hrs by MTT assay (reference value: 0.405 +/- 0.007%); type: functional; details: UMR108, 24 h, read-out: Activity
CCRF-CEM = assay: Induction of apoptosis in human CCRF-CEM cells at antiproliferative IC50 after 72 hrs by Annexin V/propidium iodide staining based assay (reference value: 0.8%); type: functional
MCF7 = assay: Antiproliferative activity against human MCF7 cells after 48 hrs relative to control; type: functional
MG-63 = assay: Growth inhibition of human MG63 cells at 0.8 mg/ml after 48 hrs by MTT assay relative to control; type: functional; details: MG-63, 48 h, read-out: GI
HT-29 [9] = assay: Growth inhibition of human HT-29 cells after 24 hrs by MTT assay; type: functional, cell-based; details: HT-29, 24 h
HT-29 [10] = assay: Growth inhibition of human HT-29 cells at 2 ml/L after 48 hrs by MTT assay relative to control; type: functional
U-266 [11] = assay: Antiproliferative activity against human U266 cells after 24 hrs by MTT assay; type: functional, cell-based; details: U-266, 24 h
SGC-7901 = assay: Growth inhibition of human SGC7901 cells at 60 mg/ml after 72 hrs by MTT assay relative to control; type: functional; details: SGC-7901, 72 h, read-out: GI
U2OS = assay: Growth inhibition of human U2OS cells at 0.8 mg/ml after 48 hrs by MTT assay relative to control; type: functional; details: read-out: GI
[12] = Growth inhibition of human GRC1 cells at 1.5 g/L after 48 hrs by MTT assay relative to control; type: functional; details: read-out: GI
SAOS-2 [13] = assay: Growth inhibition of human Saos2 cells at 3.2 mg/ml after 48 hrs by MTT assay relative to control; type: functional; details: SAOS-2, 48 h, read-out: GI
HT-29 [14] = assay: Growth inhibition of human HT-29 cells at 0.25 mg/ml by MTT assay relative to control; type: functional; details: read-out: GI
SMMC-7721 = assay: Antiproliferative activity against human SMMC7721 cells at 200 ug/ml after 72 hrs by MTT assay relative to control; type: functional
HT-29 [15] = assay: Growth inhibition of human HT-29 cells at 4 ml/L after 36 hrs by MTT assay relative to control; type: functional
HOS [16] = assay: Growth inhibition of human HOS cells at 3.2 mg/ml after 48 hrs by MTT assay relative to control; type: functional; details: read-out: GI
UMR108 [17] = assay: Growth inhibition of rat UMR108 cells assessed as cell proliferation at 0.5 mg/ml after 72 hrs by MTT assay (reference value: 0.403 +/- 0.009%); type: functional; details: UMR108, 72 h, read-out: Activity
UMR108 [18] = assay: Growth inhibition of rat UMR108 cells assessed as cell proliferation at 1.5 mg/ml after 48 hrs by MTT assay (reference value: 0.404 +/- 0.008%); type: functional; details: UMR108, 48 h, read-out: Activity
RPMI-8226 [19] = assay: Antiproliferative activity against human RPMI8226 cells after 24 hrs by MTT assay; type: functional, cell-based; details: RPMI-8226, 24 h
D341 cell line = assay: Growth inhibition of human D341 cells at 2 mg/ml after 48 hrs by CCK8 assay relative to control; type: functional; details: D341, 48 h, read-out: GI
HT-29 [20] = assay: Antiproliferative activity against human HT-29 cells by MTT assay; type: functional, cell-based
PC-3 [21] = assay: Induction of apoptosis in human PC3 cells assessed as late apoptotic cells at 25 mg/mL (reference value: 2.5%); type: functional
PANC-1 = assay: Antiproliferative activity against human PANC1 cells by MTT assay; type: functional, cell-based
KYSE-150 cell line [22] = assay: Antiproliferative activity against human KYSE-150 cells assessed as cell viability at 0.5 mg/ml after 24 hrs by MTT assay relative to control; type: functional; details: KYSE-150, 24 h, read-out: Activity
U-266 [23] = assay: Antiproliferative activity against human U266 cells after 48 hrs by MTT assay; type: functional, cell-based; details: U-266, 48 h
BXPC-3 = assay: Antiproliferative activity against human BxPC3 cells after 72 hrs by MTT assay; type: functional, cell-based; details: BXPC-3, 72 h
RPMI-8226 [24] = assay: Antiproliferative activity against human RPMI8226 cells after 48 hrs by MTT assay; type: functional, cell-based; details: RPMI-8226, 48 h
[25] = Growth inhibition of human GRC1 cells at 0.5 g/L after 72 hrs by MTT assay relative to control; type: functional; details: read-out: GI
[26] = Growth inhibition of human MM1R cells after 24 hrs; type: functional; details: MM.1R
PC-3 [27] = assay: Growth inhibition of human PC3 cells at 6 g/L after 72 hrs relative to control; type: functional; details: PC-3, 72 h, read-out: GI
SAOS-2 [28] = assay: Growth inhibition of human Saos2 cells after 48 hrs by MTT assay; type: functional, cell-based; details: SAOS-2, 48 h
RPMI-8226 [29] = assay: Growth inhibition of human RPMI8226 cells at […] after 24 hrs relative to control; type: functional; details: RPMI-8226, 24 h, read-out: GI
[30] = Growth inhibition of human GRC1 cells at 1 g/L after 96 hrs by MTT assay relative to control; type: functional; details: read-out: GI
HepG2 = assay: Induction of apoptosis in human HepG2 cells at 0.5 mg/ml by Annexin V-FITC/propidium iodide staining based flow cytometry (reference value: 0.14%); type: functional
HT-29 [31] = assay: Growth inhibition of human HT-29 cells at 16 ml/L after 36 hrs by MTT assay relative to control; type: functional
SiHa = assay: Antiproliferative activity against human SiHa cells after 48 hrs by CCK8 assay; type: functional, cell-based

Q: With `O=C1CCC[C@@H]2[C@H]3CCCN4CCC[C@@H](CN12)[C@@H]34` [MATRINE] as the molecule, how does the Activity (A549 [1]) read?
A: Its Activity is 20%.

Q: What about the Activity (A549 [2]) of the same molecule?
A: The Activity was 30%.

Q: What about the inhibition of growth at 1000 µg/mL (HT-29 [3]) of the same molecule?
A: The inhibition of growth at 1000 µg/mL was 35.9%.

Q: What about the inhibition of growth at 1500 µg/mL [4] of the same molecule?
A: Its inhibition of growth at 1500 µg/mL is 34%.

Q: And the Activity [5]?
A: The Activity was 20%.

Q: What about the inhibition of growth at 800 µg/mL (HOS [6]) of the same molecule?
A: The inhibition of growth at 800 µg/mL was 10%.

Q: And the IC50 (K562)?
A: The IC50 was 1.77 mM.

Q: What about the IC50 (HL-60) of the same molecule?
A: Its IC50 is 0.00366 mM.

Q: And the IC50 (KYSE-150 cell line [7])?
A: Its IC50 is 7.82 mM.

Q: And the Activity (HeLa)?
A: Its Activity is 8.91%.

Q: And the growth at 1500 µg/mL (UMR108 [8])?
A: Its growth at 1500 µg/mL is 0.245%.

Q: And the Activity (CCRF-CEM)?
A: The Activity was 5.4%.

Q: And the Activity (MCF7)?
A: The Activity was 7.56 - 53.92%.

Q: What about the inhibition of growth at 800 µg/mL (MG-63) of the same molecule?
A: The inhibition of growth at 800 µg/mL was 20%.

Q: And the IC50 (HT-29 [9])?
A: Its IC50 is 6.32 to 50.3 mM.

Q: And the “growth inhibition (GI)” value (HT-29 [10])?
A: The value was 29.73%.

Q: And the IC50 (U-266 [11])?
A: The IC50 was 2180 µg/mL (≈ 8.78 mM).

Q: And the inhibition of growth at 60000 µg/mL (SGC-7901)?
A: Its inhibition of growth at 60000 µg/mL is 40%.

Q: What about the inhibition of growth at 800 µg/mL (U2OS) of the same molecule?
A: Its inhibition of growth at 800 µg/mL is 10%.

Q: And the inhibition of growth at 1500 µg/mL [12]?
A: Its inhibition of growth at 1500 µg/mL is 32%.

Q: What about the inhibition of growth at 3200 µg/mL (SAOS-2 [13]) of the same molecule?
A: The inhibition of growth at 3200 µg/mL was 70%.

Q: What about the inhibition of growth at 250 µg/mL (HT-29 [14]) of the same molecule?
A: Its inhibition of growth at 250 µg/mL is 12.2%.

Q: And the Activity (SMMC-7721)?
A: The Activity was 77.4%.

Q: And the “growth inhibition (GI)” value (HT-29 [15])?
A: The value was 42.48%.

Q: And the inhibition of growth at 3200 µg/mL (HOS [16])?
A: The inhibition of growth at 3200 µg/mL was 57%.

Q: What about the growth at 500 µg/mL (UMR108 [17]) of the same molecule?
A: The growth at 500 µg/mL was 0.228%.

Q: And the growth at 1500 µg/mL (UMR108 [18])?
A: Its growth at 1500 µg/mL is 0.205%.

Q: And the IC50 (RPMI-8226 [19])?
A: Its IC50 is 2250 µg/mL (≈ 9.06 mM).

Q: And the inhibition of growth at 2000 µg/mL (D341 cell line)?
A: The inhibition of growth at 2000 µg/mL was 47.2%.

Q: What about the IC50 (HT-29 [20]) of the same molecule?
A: The IC50 was 0.0286 mM.

Q: And the Activity (PC-3 [21])?
A: Its Activity is 14.6%.

Q: And the IC50 (PANC-1)?
A: The IC50 was 0.0286 mM.

Q: And the viability at 500 µg/mL (KYSE-150 cell line [22])?
A: Its viability at 500 µg/mL is 82.2%.

Q: And the IC50 (U-266 [23])?
A: The IC50 was 1580 µg/mL (≈ 6.36 mM).

Q: What about the IC50 (BXPC-3) of the same molecule?
A: Its IC50 is 2.94 mM.

Q: What about the IC50 (RPMI-8226 [24]) of the same molecule?
A: Its IC50 is 1640 µg/mL (≈ 6.6 mM).

Q: What about the inhibition of growth at 500 µg/mL [25] of the same molecule?
A: The inhibition of growth at 500 µg/mL was 21.9%.

Q: What about the IC50 [26] of the same molecule?
A: The IC50 was 5.4 mM.

Q: And the inhibition of growth at 6000 µg/mL (PC-3 [27])?
A: Its inhibition of growth at 6000 µg/mL is 90%.

Q: And the IC50 (SAOS-2 [28])?
A: The IC50 was 4.27 mM.

Q: What about the inhibition of growth at 2 g/mL (RPMI-8226 [29]) of the same molecule?
A: The inhibition of growth at 2 g/mL was 74%.

Q: And the inhibition of growth at 1000 µg/mL [30]?
A: The inhibition of growth at 1000 µg/mL was 45.8%.

Q: And the Activity (HepG2)?
A: The Activity was 28.91%.

Q: And the “growth inhibition (GI)” value (HT-29 [31])?
A: The value was 68.29%.

Q: What about the IC50 (SiHa) of the same molecule?
A: The IC50 was 5.76 mM.
